Consider one molecule from article PMC10197885, “Anomanolide C suppresses tumor progression and metastasis by ubiquitinating GPX4-driven autophagy-dependent ferroptosis in triple negative breast cancer” (International Journal of Biological Sciences, 2023).

Each structure is given as a SMILES string.

The target in the assay is T1, GPX4 (Homo sapiens, UniProt P36969).
T1 sequence (P36969 28-197): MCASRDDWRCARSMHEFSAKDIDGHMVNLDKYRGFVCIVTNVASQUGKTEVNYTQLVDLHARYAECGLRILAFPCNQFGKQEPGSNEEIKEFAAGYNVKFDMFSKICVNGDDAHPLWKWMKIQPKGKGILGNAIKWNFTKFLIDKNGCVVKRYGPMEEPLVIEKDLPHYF
Kind of assay: SPR (Biacore, GPX4 coupled to CM5 chip); supported by CETSA in MDA-MB-231 cells. The class given is binding. The source says:
SPR (Biacore, GPX4 coupled to CM5 chip); supported by CETSA in MDA-MB-231 cells on GPX4 | AC binds to GPX4 protein as shown by surface plasmon resonance (SPR) measurements.
In general terms: Surface plasmon resonance follows binding to a sensor surface in real time, without labels.

In turn, `C[C@@]12CC([C@@]3(O)[C@H](O)C[C@H]4[C@@H]5C[C@H]6O[C@]67[C@@H](O)C=CC(=O)[C@]7(C)[C@H]5CC[C@@]43C)[C@@H](C1)OC(=O)[C@]2(C)O` (stereo partly shown) [AC, Anomanolide C] returned an equilibrium dissociation constant (Kd) of around 24 µM.

Broadly, the Kd is a measure of binding affinity in units of concentration.
